Biological target: T1, HDAC6 enzyme (Homo sapiens, UniProt Q9UBN7)
T1 construct: prepared by transducing full length HDAC1 and HDAC6 genes into Sf-9 insect cells; GST; purchased SignalChem; host or cells: Sf-9 insect cells
T1 sequence (Q9UBN7 1-1215): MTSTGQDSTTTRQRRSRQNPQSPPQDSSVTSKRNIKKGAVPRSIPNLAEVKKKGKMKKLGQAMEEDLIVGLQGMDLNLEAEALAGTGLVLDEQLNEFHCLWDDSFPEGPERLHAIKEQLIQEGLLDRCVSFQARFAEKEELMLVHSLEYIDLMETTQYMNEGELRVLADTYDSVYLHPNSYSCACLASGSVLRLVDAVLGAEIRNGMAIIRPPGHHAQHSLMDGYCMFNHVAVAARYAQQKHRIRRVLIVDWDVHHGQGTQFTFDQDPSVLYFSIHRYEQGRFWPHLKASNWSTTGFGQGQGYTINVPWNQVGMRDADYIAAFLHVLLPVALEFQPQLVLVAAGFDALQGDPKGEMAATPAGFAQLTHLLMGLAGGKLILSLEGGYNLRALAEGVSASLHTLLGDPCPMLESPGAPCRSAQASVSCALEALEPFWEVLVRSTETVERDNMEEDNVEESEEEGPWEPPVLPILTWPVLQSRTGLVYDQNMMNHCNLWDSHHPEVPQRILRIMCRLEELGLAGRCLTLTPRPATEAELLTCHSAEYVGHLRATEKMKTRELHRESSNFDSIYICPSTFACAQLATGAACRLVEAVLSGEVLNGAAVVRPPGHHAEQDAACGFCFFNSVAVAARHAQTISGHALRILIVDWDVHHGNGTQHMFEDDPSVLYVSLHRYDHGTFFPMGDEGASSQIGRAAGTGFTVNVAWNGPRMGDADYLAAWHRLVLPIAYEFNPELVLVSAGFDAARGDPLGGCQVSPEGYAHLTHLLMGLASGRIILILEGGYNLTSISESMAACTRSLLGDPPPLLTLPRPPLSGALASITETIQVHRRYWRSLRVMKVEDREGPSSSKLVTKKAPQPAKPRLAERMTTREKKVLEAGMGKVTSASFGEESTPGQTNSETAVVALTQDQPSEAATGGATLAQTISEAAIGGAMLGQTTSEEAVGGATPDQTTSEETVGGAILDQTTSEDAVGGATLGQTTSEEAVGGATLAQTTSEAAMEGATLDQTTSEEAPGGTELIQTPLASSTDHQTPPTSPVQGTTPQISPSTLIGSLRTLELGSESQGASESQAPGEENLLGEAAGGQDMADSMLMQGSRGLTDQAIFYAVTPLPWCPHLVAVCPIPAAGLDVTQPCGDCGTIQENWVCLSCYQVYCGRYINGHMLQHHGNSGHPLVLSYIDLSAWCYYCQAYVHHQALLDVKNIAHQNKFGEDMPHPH
Test: HDAC6 enzyme inhibitory assay (HDAC-Glo I/II Assay kit)
Type: biochemical
Conditions: 1 μM test compound; read-out: HDAC6 inhibitory rate (%) (1 μM)
Protocol: HDAC1 enzyme and HDAC6 enzyme each prepared by transducing full length HDAC1 and HDAC6 genes into Sf-9 insect cells and purifying by GST affinity column were purchased from SignalChem. Using these enzymes, HDAC1 and/or HDAC6 enzyme inhibitory activities of the compound of the present invention were evaluated. Enzymes were used after preserved at −70° C. HDAC1 or HDAC6 enzyme inhibitory activity of the compound of the present invention was measured using HDAC-Glo™ I/II Assay kit (Promega) according to the following experimental method. The test compound diluted with assay buffer (24 mM Tris-HCl (pH 7.5), 1 mM MgCl2, 0.35 mM KCl, 135 mM NaCl, 0.6 mM Glutathione, 0.01% Tween-20) was added to a 384-well plate by each 2 μL. Then, HDAC1 or HDAC6 enzyme solution diluted with assay buffer was added thereto by each 4 μL, and the plate was incubated at room temperature for 60 min. After incubated, HDAC substrate-Developer solution prepared according to Promega protocol attached to the assay kit was added to the 384-well plate by each 2 μL, and the enzyme reaction was started. After reacting at room temperature for 20 min, luminescence level was measured using plate reader Envision (PerkinElmer). The inhibitory activity of each compound was calculated as a relative activity value when luminescence level in wells without enzyme is considered as 100% inhibition.

## O=C(NC[C@@H]1COCCN1C(=O)C1CCCO1)c1ccc(-c2noc(C(F)(F)F)n2)cc1 (stereo partly drawn) [Example 150, N-(((3R)-4-(tetrahydrofuran-2-ylcarbonyl)morpholin-3-yl)methyl)-4-(5-(trifluoromethyl)-1,2,4-oxadiazol-3-yl)benzamide]
  inhibition at 1 µM: 90%

## O=C(NCC1COCCN1C(=O)c1ccc(-c2ccccc2)cc1)c1ccc(-c2noc(C(F)(F)F)n2)s1 (stereo not drawn) [Example 223, N-((4-(biphenyl-4-ylcarbonyl)morpholin-3-yl)methyl)-5-(5-(trifluoromethyl)-1,2,4-oxadiazol-3-yl)thiophene-2-carboxamide]
  inhibition at 1 µM: 93%

## Cc1cc(C(=O)N2CCOCC2CNC(=O)c2ccc(-c3noc(C(F)(F)F)n3)cc2)ccn1 (stereo in doubt) [Example 121, N-(((3R)-4-(2-methylisonicotinoyl)morpholin-3-yl)methyl)-4-(5-(trifluoromethyl)-1,2,4-oxadiazol-3-yl)benzamide]
  inhibition at 1 µM: 87%

## O=C(NCC1COCCN1C(=O)C1(c2ccccc2)CCCCC1)c1ccc(-c2noc(C(F)(F)F)n2)s1 (stereo not drawn) [Example 249, N-((4-((1-phenylcyclohexyl)carbonyl)morpholin-3-yl)methyl)-5-(5-(trifluoromethyl)-1,2,4-oxadiazol-3-yl)thiophene-2-carboxamide]
  inhibition at 1 µM: 83%

## O=C(NC[C@H]1COCCN1C(=O)c1cc[nH]n1)c1ccc(-c2noc(C(F)(F)F)n2)cc1 [Example 71, N-(((3S)-4-(1H-pyrazol-3-ylcarbonyl)morpholin-3-yl)methyl)-4-(5-(trifluoromethyl)-1,2,4-oxadiazol-3-yl)benzamide]
  inhibition at 1 µM: 89%

## Cn1cnc(C(=O)N2CCOCC2CNC(=O)c2ccc(-c3noc(C(F)(F)F)n3)s2)c1 (stereo not drawn) [Example 234, N-((4-((1-methyl-1H-imidazol-4-yl)carbonyl)morpholin-3-yl)methyl)-5-(5-(trifluoromethyl)-1,2,4-oxadiazol-3-yl)thiophene-2-carboxamide]
  inhibition at 1 µM: 38%

## Cc1csc(C(=O)N2CCOCC2CNC(=O)c2ccc(-c3noc(C(F)(F)F)n3)s2)c1 (stereo not drawn) [Example 243, N-((4-((4-methyl-2-thienyl)carbonyl)morpholin-3-yl)methyl)-5-(5-(trifluoromethyl)-1,2,4-oxadiazol-3-yl)thiophene-2-carboxamide]
  inhibition at 1 µM: 93%

## N#Cc1cccc(C(=O)N2CCOCC2CNC(=O)c2ccc(-c3noc(C(F)(F)F)n3)cc2)c1 (stereo in doubt) [Example 116, N-(((3R)-4-(3-cyanobenzoyl)morpholin-3-yl)methyl)-4-(5-(trifluoromethyl)-1,2,4-oxadiazol-3-yl)benzamide]
  inhibition at 1 µM: 91%

## Cn1nccc1C(=O)N1CCOC[C@H]1CNC(=O)c1ccc(-c2noc(C(F)(F)F)n2)cc1 [Example 154, N-(((3R)-4-((1-methyl-1H-pyrazol-5-yl)carbonyl)morpholin-3-yl)methyl)-4-(5-(trifluoromethyl)-1,2,4-oxadiazol-3-yl)benzamide]
  inhibition at 1 µM: 89%

## O=C(NCC1c2ccccc2CN1C(=O)C1CC1)c1ccc(-c2noc(C(F)(F)F)n2)cc1 (stereo not drawn) [Example 169, N-((2-(cyclopropylcarbonyl)-2,3-dihydro-1H-isoindol-1-yl)methyl)-4-(5-(trifluoromethyl)-1,2,4-oxadiazol-3-yl)benzamide]
  inhibition at 1 µM: 84%

## O=C(NC[C@H]1COCCN1C(=O)C1CCc2ccccc2O1)c1ccc(-c2noc(C(F)(F)F)n2)cn1 (stereo partly drawn) [Example 199, N-(((3S)-4-(3,4-dihydro-2H-chromen-2-ylcarbonyl)morpholin-3-yl)methyl)-5-(5-(trifluoromethyl)-1,2,4-oxadiazol-3-yl)pyridine-2-carboxamide]
  inhibition at 1 µM: 94%

## O=C(NC[C@H]1COCCN1C(=O)c1cc2ccccc2o1)c1ccc(-c2noc(C(F)(F)F)n2)cn1 [Example 200, N-(((3S)-4-(1-benzofuran-2-ylcarbonyl)morpholin-3-yl)methyl)-5-(5-(trifluoromethyl)-1,2,4-oxadiazol-3-yl)pyridine-2-carboxamide]
  inhibition at 1 µM: 91%

Reference: US10081624B2, “Heterocyclic compound” (Takeda Pharmaceutical Company Limited, priority 2014, dated 2018)
